Patent publication US12473303B2, “4-[[(7-aminopyrazolo[1,5-a]pyrimidin-5-yl)amino methyl]piperidin-3-ol compounds and their therapeutic use” (CARRICK THERAPEUTICS LIMITED, priority 2019, dated 2025)
Where two headings read alike, the source gives them in different places.

Legend:
Human CDK12 wt/CycK = Human CDK12 wt/CycK (Homo sapiens (Human), UniProt Q9NYV4); assay: Radiometric protein kinase assay (33PanQinase Activity Assay), CDK12; assay type: biochemical; settings: for CDK7/CDK12: ratio greater than 1 indicated selectivity for CDK12
Experimental: (§1) A radiometric protein kinase assay (^33PanQinase® Activity Assay) was used for measuring the kinase activity of the two protein kinases (CDK12/CDK7). All kinase assays were performed in 96-well FlashPlates™ from PerkinElmer (Boston, MA, USA) in a 50 μL reaction volume.
(§2) The reaction cocktail was pipetted in four steps in the following order: • 20 μL of assay buffer (standard buffer) • 5 μL of ATP solution (in H2O) • 5 μL of test compound (in 10% DMSO) • 10 μL of substrate/10 μL of enzyme solution (premixed)
(§3) The reaction mixture was incubated at 30° C. for 60 min and then stopped by the addition of 2% (v/v) H3PO4. Plates were aspirated and washed two times with 200 μL 0.9% (w/v) NaCl. Incorporation of ^33Pi was determined with a microplate scintillation count (Microbeta, Wallac).
(§4) The fitting method used was a least-squares fit.

Human CDK7/CycH/MAT1 = Human CDK7/CycH/MAT1 (Homo sapiens (Human), UniProt P50613); assay: Radiometric protein kinase assay (33PanQinase Activity Assay), CDK7; assay type: biochemical; settings: Table 1; ATP 3 μM
Experimental: as §1, §2, §3, §4

A673 cells = assay: Cellular potency in A673 cells; assay type: cell-based; settings: for IC50: Homo sapiens, A673, Table 3, A673 cells; for Ratio of Biochemical Potency: Cellular Potency: Table 3, ratio >0.9 is an indicator of Cyclin K degradation
[1] = Table 1, ATP 0.3 μM, read-out: CDK12 IC50
[2] = Table 3, CDK12 kinase activity, read-out: Biochemical Potency IC50

Human CDK12 wt/CycK, sequence (Q9NYV4 whole entry): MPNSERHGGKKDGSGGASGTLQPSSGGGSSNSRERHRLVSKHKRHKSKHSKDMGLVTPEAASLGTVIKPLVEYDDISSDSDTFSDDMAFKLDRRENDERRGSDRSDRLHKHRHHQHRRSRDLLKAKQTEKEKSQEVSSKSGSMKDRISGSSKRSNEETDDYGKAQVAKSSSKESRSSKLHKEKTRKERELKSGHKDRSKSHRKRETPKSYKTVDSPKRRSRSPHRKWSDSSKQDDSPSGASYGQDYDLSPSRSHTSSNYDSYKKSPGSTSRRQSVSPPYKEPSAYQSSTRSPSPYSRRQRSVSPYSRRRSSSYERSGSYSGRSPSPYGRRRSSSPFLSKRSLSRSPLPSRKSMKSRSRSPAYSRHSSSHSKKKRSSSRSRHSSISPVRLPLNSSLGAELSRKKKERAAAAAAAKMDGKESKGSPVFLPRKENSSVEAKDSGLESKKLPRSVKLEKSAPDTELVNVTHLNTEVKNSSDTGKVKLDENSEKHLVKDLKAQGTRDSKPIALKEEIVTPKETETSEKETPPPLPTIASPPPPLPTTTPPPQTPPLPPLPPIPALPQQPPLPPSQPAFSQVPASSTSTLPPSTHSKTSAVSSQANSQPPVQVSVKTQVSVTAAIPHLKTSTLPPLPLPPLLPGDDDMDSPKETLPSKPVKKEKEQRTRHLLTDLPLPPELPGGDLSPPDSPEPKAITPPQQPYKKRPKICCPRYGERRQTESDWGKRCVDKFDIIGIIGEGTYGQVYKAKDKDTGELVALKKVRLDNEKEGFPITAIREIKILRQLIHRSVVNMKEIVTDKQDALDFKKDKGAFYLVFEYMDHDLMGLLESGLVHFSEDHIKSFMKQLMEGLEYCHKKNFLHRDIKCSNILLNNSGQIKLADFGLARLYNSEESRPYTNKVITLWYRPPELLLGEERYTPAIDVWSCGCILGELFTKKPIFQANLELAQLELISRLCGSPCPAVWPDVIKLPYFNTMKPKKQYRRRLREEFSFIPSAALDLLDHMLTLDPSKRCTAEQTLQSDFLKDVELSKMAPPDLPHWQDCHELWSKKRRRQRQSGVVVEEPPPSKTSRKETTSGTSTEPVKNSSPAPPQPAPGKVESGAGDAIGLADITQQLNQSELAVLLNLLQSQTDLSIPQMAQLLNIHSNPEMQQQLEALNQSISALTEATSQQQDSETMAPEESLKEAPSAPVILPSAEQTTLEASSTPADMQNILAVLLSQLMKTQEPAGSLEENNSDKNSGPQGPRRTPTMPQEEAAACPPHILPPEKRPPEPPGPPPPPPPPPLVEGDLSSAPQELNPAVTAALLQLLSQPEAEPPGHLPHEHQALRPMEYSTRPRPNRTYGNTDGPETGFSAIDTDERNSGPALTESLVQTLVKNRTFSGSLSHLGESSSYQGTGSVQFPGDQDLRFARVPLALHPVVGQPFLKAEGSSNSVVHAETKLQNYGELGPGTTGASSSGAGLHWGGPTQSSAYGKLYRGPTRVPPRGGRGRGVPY
Human CDK12 wt/CycK, sequence (O75909 whole entry partner): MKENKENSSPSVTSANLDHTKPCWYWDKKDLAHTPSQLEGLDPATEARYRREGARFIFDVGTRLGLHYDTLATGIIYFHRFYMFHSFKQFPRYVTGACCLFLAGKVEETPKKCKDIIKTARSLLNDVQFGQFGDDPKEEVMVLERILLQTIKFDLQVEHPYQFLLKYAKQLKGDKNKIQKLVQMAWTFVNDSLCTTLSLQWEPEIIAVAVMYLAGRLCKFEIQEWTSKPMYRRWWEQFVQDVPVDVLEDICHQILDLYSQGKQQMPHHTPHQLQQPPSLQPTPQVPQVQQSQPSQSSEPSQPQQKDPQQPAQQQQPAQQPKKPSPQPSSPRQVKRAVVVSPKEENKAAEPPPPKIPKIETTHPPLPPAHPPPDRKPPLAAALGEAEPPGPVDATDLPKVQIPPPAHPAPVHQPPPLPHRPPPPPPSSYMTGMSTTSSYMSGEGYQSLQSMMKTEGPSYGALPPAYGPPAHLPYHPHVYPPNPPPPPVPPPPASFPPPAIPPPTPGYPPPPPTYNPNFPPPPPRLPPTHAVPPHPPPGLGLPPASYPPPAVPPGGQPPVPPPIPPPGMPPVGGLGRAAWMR
Human CDK7/CycH/MAT1, sequence (P50613 whole entry): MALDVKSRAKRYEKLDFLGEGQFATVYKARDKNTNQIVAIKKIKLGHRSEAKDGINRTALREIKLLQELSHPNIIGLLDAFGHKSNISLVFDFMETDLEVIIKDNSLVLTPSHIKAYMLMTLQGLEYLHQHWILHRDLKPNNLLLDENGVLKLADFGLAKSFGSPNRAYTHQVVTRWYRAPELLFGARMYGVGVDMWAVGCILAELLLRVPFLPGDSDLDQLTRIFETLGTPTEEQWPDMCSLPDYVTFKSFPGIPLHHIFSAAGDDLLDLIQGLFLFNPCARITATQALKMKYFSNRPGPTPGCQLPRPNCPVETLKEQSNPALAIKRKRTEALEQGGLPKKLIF
Human CDK7/CycH/MAT1, sequence (P51946 whole entry partner): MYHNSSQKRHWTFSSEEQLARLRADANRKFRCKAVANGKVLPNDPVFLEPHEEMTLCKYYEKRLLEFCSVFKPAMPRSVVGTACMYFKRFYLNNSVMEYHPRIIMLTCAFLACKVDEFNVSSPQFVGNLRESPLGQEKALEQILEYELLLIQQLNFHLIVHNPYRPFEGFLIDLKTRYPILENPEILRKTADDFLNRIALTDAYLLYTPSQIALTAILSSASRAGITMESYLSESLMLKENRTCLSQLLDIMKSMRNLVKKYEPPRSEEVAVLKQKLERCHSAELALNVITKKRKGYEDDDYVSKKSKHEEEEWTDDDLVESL
Human CDK7/CycH/MAT1, sequence (P51948 whole entry partner): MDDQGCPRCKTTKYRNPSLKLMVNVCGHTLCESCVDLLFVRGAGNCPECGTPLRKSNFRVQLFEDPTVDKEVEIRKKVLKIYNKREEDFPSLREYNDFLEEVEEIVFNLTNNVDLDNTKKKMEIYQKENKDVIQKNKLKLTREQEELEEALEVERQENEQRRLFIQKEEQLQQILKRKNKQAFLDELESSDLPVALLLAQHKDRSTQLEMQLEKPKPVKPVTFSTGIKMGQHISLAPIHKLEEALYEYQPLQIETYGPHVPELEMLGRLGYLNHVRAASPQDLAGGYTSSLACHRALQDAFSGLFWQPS

Compound	IC50 (Human CDK12 wt/CycK; [1])	CDK7/CDK12 (Human CDK12 wt/CycK; Table 1)	IC50 (Human CDK12 wt/CycK; [2])	IC50 (Human CDK7/CycH/MAT1)	IC50 (A673 cells)	Ratio of Biochemical Potency: Cellular Potency (A673 cells)
Cc1cccc2ncc(CNc3cc(NC[C@H]4CCNC[C@@H]4O)nc4c(C(C)C)cnn34)n12 [H-APPAMP-001, (3R,4R)-4-(((3-isopropyl-7-(((5-methylimidazo[1,2-a]pyridin-3-yl)methyl)amino)pyrazolo[1,5-a]pyrimidin-5-yl)amino)methyl)piperidin-3-ol]	38 nM	11.5	38 nM	436 nM	123 nM	0.3
CC(C)c1cnn2c(NCc3cn4cccnc4n3)cc(NC[C@H]3CCNC[C@@H]3O)nc12 [H-APPAMP-002, (3R,4R)-4-(((7-((imidazo[1,2-a]pyrimidin-2-ylmethyl)amino)-3-isopropylpyrazolo[1,5-a]pyrimidin-5-yl)amino)methyl)piperidin-3-ol]	71.5 nM	9.85	71 nM	704 nM	716 nM	0.1
CC(C)c1cnn2c(NCc3cn4ccccc4n3)cc(NC[C@H]3CCNC[C@@H]3O)nc12 [H-APPAMP-003, (3R,4R)-4-(((7-((imidazo[1,2-a]pyridin-2-ylmethyl)amino)-3-isopropylpyrazolo[1,5-a]pyrimidin-5-yl)amino)methyl)piperidin-3-ol]	50.2 nM	8.19	50 nM	411 nM	8 nM	6.2
Cc1csc2nc(CNc3cc(NC[C@H]4CCNC[C@@H]4O)nc4c(C(C)C)cnn34)cn12 [H-APPAMP-007, (3R,4R)-4-[[[3-isopropyl-7-[(3-methylimidazo[2,1-b]thiazol-6-yl)methylamino]pyrazolo[1,5-a]pyrimidin-5-yl]amino]methyl]piperidin-3-ol]	20 nM	7.90	20 nM	158 nM	27 nM	0.7
CC(C)c1cnn2c(NCc3cn4cc(F)ccc4n3)cc(NC[C@H]3CCNC[C@@H]3O)nc12 [H-APPAMP-011, (3R,4R)-4-(((7-(((6-fluoroimidazo[1,2-a]pyridin-2-yl)methyl)amino)-3-isopropylpyrazolo[1,5-a]pyrimidin-5-yl)amino)methyl)piperidin-3-ol]	33 nM	5.1	33 nM	168 nM	6.3 nM	5.2
CC(C)c1cnn2c(NCc3cn4cc(Cl)ccc4n3)cc(NC[C@H]3CCNC[C@@H]3O)nc12 [H-APPAMP-012, (3R,4R)-4-(((7-(((6-chloroimidazo[1,2-a]pyridin-2-yl)methyl)amino)-3-isopropylpyrazolo[1,5-a]pyrimidin-5-yl)amino)methyl)piperidin-3-ol]	26 nM	8.2	26 nM	214 nM	21.8 nM	1.2
CC(C)c1cnn2c(NCc3cn4cccc(C5CC5)c4n3)cc(NC[C@H]3CCNC[C@@H]3O)nc12 [H-APPAMP-013, (3R,4R)-4-(((7-(((8-cyclopropylimidazo[1,2-a]pyridin-2-yl)methyl)amino)-3-isopropylpyrazolo[1,5-a]pyrimidin-5-yl)amino)methyl)piperidin-3-ol]	70 nM	3.2	70 nM	226 nM	12.2 nM	5.7
CC(C)c1cnn2c(NCc3cnc4ccccn34)cc(NC[C@H]3CCNC[C@@H]3O)nc12 [H-APPAMP-016, (3R,4R)-4-(((7-((imidazo[1,2-a]pyridin-3-ylmethyl)amino)-3-isopropylpyrazolo[1,5-a]pyrimidin-5-yl)amino)methyl)piperidin-3-ol]	96 nM	1.9	96 nM	179 nM	14.8 nM	6.5
Cc1c(CNc2cc(NC[C@H]3CCNC[C@@H]3O)nc3c(C(C)C)cnn23)nc2ccccn12 [H-APPAMP-017, (3R,4R)-4-(((3-isopropyl-7-(((3-methylimidazo[1,2-a]pyridin-2-yl)methyl)amino)pyrazolo[1,5-a]pyrimidin-5-yl)amino)methyl)piperidin-3-ol]	63 nM	0.6	143 nM	40 nM	8.3 nM	17.2
CC(C)c1cnn2c(NC(C)c3cn4ccccc4n3)cc(NC[C@H]3CCNC[C@@H]3O)nc12 (stereo partly drawn) [H-APPAMP-019, (3R,4R)-4-(((7-((1-(imidazo[1,2-a]pyridin-2-yl)ethyl)amino)-3-isopropylpyrazolo[1,5-a]pyrimidin-5-yl)amino)methyl)piperidin-3-ol]	522 nM	1.2	522 nM	640 nM	76.9 nM	6.8
CC(C)c1cnn2c(NCc3cc4ccccc4o3)cc(NC[C@H]3CCNC[C@@H]3O)nc12 [H-APPAMP-020, (3R,4R)-4-(((7-((benzofuran-2-ylmethyl)amino)-3-isopropylpyrazolo[1,5-a]pyrimidin-5-yl)amino)methyl)piperidin-3-ol]	540 nM	0.2	540 nM	82 nM	116 nM	4.7
CC(C)c1cnn2c(Nc3csc4ccccc34)cc(NC[C@H]3CCNC[C@@H]3O)nc12 [REF-003, reference compound]	597 nM			11 nM		

Continued by falling IC50 (Human CDK12 wt/CycK; [1]), values first:

IC50 (Human CDK12 wt/CycK; [1])	CDK7/CDK12 (Human CDK12 wt/CycK; Table 1)	IC50 (Human CDK12 wt/CycK; [2])	IC50 (Human CDK7/CycH/MAT1)	IC50 (A673 cells)	Compound	Ratio of Biochemical Potency: Cellular Potency (A673 cells)
3200 nM					CC(C)c1cnn2c(NCc3ccccc3)cc(NC[C@H]3CCNC[C@@H]3O)nc12 [REF-001, reference compound]	
277 nM	0.01	277 nM	3 nM	151 nM	Cc1ccn2c(CNc3cc(NC[C@H]4CCNC[C@@H]4O)nc4c(C(C)C)cnn34)c(C)nc2c1 [H-APPAMP-015, (3R,4R)-4-(((7-(((2,7-dimethylimidazo[1,2-a]pyridin-3-yl)methyl)amino)-3-isopropylpyrazolo[1,5-a]pyrimidin-5-yl)amino)methyl)piperidin-3-ol]	1.8
253 nM			125 nM		CC(C)c1cnn2c(NCc3ccncc3)cc(NC[C@H]3CCNC[C@@H]3O)nc12 [REF-002, reference compound]	
75 nM	0.3	75 nM	19 nM	7.3 nM	CC(C)c1cnn2c(NCc3ccc4ccccc4n3)cc(NC[C@H]3CCNC[C@@H]3O)nc12 [H-APPAMP-014, (3R,4R)-4-(((3-isopropyl-7-((quinolin-2-ylmethyl)amino)pyrazolo[1,5-a]pyrimidin-5-yl)amino)methyl)piperidin-3-ol]	10
65 nM	5.28	65 nM	343 nM	47 nM	CC(C)c1cnn2c(NCc3nc4ccccc4[nH]3)cc(NC[C@H]3CCNC[C@@H]3O)nc12 [H-APPAMP-005, (3R,4R)-4-(((7-(((1H-benzo[d]imidazol-2-yl)methyl)amino)-3-isopropylpyrazolo[1,5-a]pyrimidin-5-yl)amino)methyl)piperidin-3-ol]	1.4
65 nM	3.2	65 nM	206 nM	16.3 nM	[2H]C([2H])(Nc1cc(NC[C@H]2CCNC[C@@H]2O)nc2c(C(C)C)cnn12)c1cn2ccccc2n1 [H-APPAMP-018, (3R,4R)-4-(((7-((imidazo[1,2-a]pyridin-2-ylmethyl-d2)amino)-3-isopropylpyrazolo[1,5-a]pyrimidin-5-yl)amino)methyl)piperidin-3-ol]	4.0
40 nM	6.0	40 nM	238 nM	4.3 nM	Cc1cccc2nc(CNc3cc(NC[C@H]4CCNC[C@@H]4O)nc4c(C(C)C)cnn34)cn12 [H-APPAMP-010, (3R,4R)-4-(((3-isopropyl-7-(((5-methylimidazo[1,2-a]pyridin-2-yl)methyl)amino)pyrazolo[1,5-a]pyrimidin-5-yl)amino)methyl)piperidin-3-ol]	9.3
38 nM	3.2	38 nM	123 nM	14.9 nM	Cc1ccn2cc(CNc3cc(NC[C@H]4CCNC[C@@H]4O)nc4c(C(C)C)cnn34)nc2c1 [H-APPAMP-009, (3R,4R)-4-(((3-isopropyl-7-(((7-methylimidazo[1,2-a]pyridin-2-yl)methyl)amino)pyrazolo[1,5-a]pyrimidin-5-yl)amino)methyl)piperidin-3-ol]	2.6
26.9 nM	4.72	27 nM	127 nM	52 nM	CC(C)c1cnn2c(NCc3ccc4c(c3)ncn4C)cc(NC[C@H]3CCNC[C@@H]3O)nc12 [H-APPAMP-006, (3R,4R)-4-(((3-isopropyl-7-(((1-methyl-1H-benzo[d]imidazol-5-yl)methyl)amino)pyrazolo[1,5-a]pyrimidin-5-yl)amino)methyl)piperidin-3-ol]	0.5
